From patent publication US12492173B2, “Herbicidal substituted N-tetrazolyl aryl carboxamides” (Bayer Aktiengesellschaft, priority 2019, dated 2025)

Columns and labels:
Format in all cases: in vivo
Abutilon theophrasti [1] = assay: Pre-emergence herbicidal action, ABUTH; conditions: dosage 320 g/ha; for herbicidal activity ABUTH: scored visually after 3 weeks vs untreated controls (100% = plants have died)
In short: (§1)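 Greenhouse pre-emergence test: formulated compound (WP or EC) applied in water to the soil covering sown seeds, 600–800 l/ha, 0.2% wetting agent. Scored visually in percent at 3 weeks versus untreated plants.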

Matricaria inodora = assay: Pre-emergence herbicidal action, MATIN; conditions: dosage 320 g/ha; for herbicidal activity MATIN: scored visually after 3 weeks vs untreated controls (100% = plants have died)
In short: as §1

Abutilon theophrasti [2] = assay: Post-emergence herbicidal action, ABUTH; design: key: % herbicidal action vs untreated; 100 = plants died, 0 = like control
In short: (§2)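 Greenhouse weeds grown in sandy loam were sprayed at the one-leaf stage, 2–3 weeks after sowing, with WP or EC formulations at 600–800 l/ha water plus 0.2% wetting agent. Damage scored visually about 3 weeks later, in percent against untreated controls (100% = plants dead).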

Avena fatua = assay: Post-emergence herbicidal action, AVEFA; design: key: % herbicidal action vs untreated; 100 = plants died, 0 = like control
In short: as §2

Echinochloa crus-galli = assay: Post-emergence herbicidal action, ECHCG; design: key: % herbicidal action vs untreated; 100 = plants died, 0 = like control
In short: as §2

Polygonum convolvulus = assay: Post-emergence herbicidal action, POLCO
In short: as §2

SMILES	herbicidal action ABUTH (Abutilon theophrasti [1]) [%]	herbicidal action MATIN (Matricaria inodora) [%]	herbicidal action ABUTH (Abutilon theophrasti [2]; Dosage 80 g/ha)	herbicidal action AVEFA (Avena fatua; Dosage 80 g/ha)	herbicidal action ECHCG (Echinochloa crus-galli; Dosage 80 g/ha)	herbicidal action POLCO (Polygonum convolvulus; Dosage 80 g/ha)	herbicidal activity ABUTH (Abutilon theophrasti [1]) [%]	herbicidal activity MATIN (Matricaria inodora) [%]	herbicidal action ABUTH (Abutilon theophrasti [2]; post-emergence, dosage 80 g/ha) [%]	herbicidal action AVEFA (Avena fatua; post-emergence, dosage 80 g/ha) [%]	herbicidal action ECHCG (Echinochloa crus-galli; post-emergence, dosage 80 g/ha) [%]	herbicidal action POLCO (Polygonum convolvulus; post-emergence, dosage 80 g/ha) [%]
CCn1nnnc1NC(=O)c1ccc(C(F)(F)F)c(CS(=O)(=O)CC)c1Cl [Example 2-301]	100	100	80	90	90	90	–	–	–	–	–	–
CCn1nnnc1NC(=O)c1ccc(C(F)(F)F)c(CSCCOC)c1Cl [Example 2-305]	–	–	–	–	–	–	100	100	100	80	100	100
CCn1nnnc1NC(=O)c1ccc(C(F)(F)F)c(CSCC(F)(F)F)c1Cl [Example 2-311]	–	–	90	90	100	90	100	100	–	–	–	–
CCn1nnnc1NC(=O)c1ccc(C(F)(F)F)c(C[S+]([O-])CC2CC2)c1Cl (stereo not drawn) [Example 2-315]	–	–	100	90	100	100	100	100	–	–	–	–
CCn1nnnc1NC(=O)c1ccc(C(F)F)c(CSC)c1Cl [Example 2-320]	–	–	100	90	100	100	100	100	–	–	–	–
CCn1nnnc1NC(=O)c1ccc(C(F)F)c(CS(C)(=O)=O)c1Cl [Example 2-322]	–	–	–	–	–	–	100	90	100	80	100	100
CCSCc1c(C(F)F)ccc(C(=O)Nc2nnnn2CC)c1Cl [Example 2-323]	–	–	–	–	–	–	100	100	100	100	100	100
CCn1nnnc1NC(=O)c1ccc(C(F)F)c(C[S+]([O-])CC)c1Cl (stereo not drawn) [Example 2-324]	–	–	–	–	–	–	100	100	100	100	100	100
CCn1nnnc1NC(=O)c1ccc(C(F)F)c(CS(=O)(=O)CC)c1Cl [Example 2-325]	–	–	100	90	100	90	100	100	–	–	–	–
CCn1nnnc1NC(=O)c1ccc(I)c(C[S+](C)[O-])c1Cl (stereo not drawn) [Example 2-363]	–	–	100	90	100	100	100	100	–	–	–	–
CCn1nnnc1NC(=O)c1ccc(C(F)(F)F)c(C[S+]([O-])CC)c1Br (stereo not drawn) [Example 2-384]	–	–	–	–	–	–	100	100	100	90	90	80
CCn1nnnc1NC(=O)c1ccc(C(F)(F)F)c(CS(=O)(=O)CC)c1Br [Example 2-385]	–	–	–	–	–	–	100	100	100	90	90	90
CCn1nnnc1NC(=O)c1ccc(Cl)c(CSC)c1Cl [Example 2-559]	100	90	90	100	100	80	–	–	–	–	–	–
CCCn1nnnc1NC(=O)c1ccc(C(F)(F)F)c(CSCC)c1C [Example 3-86]	100	100	80	80	90	80	–	–	–	–	–	–
CCCn1nnnc1NC(=O)c1ccc(C(F)(F)F)c(C[S+](C)[O-])c1OC (stereo not drawn) [Example 3-135]	100	100	100	100	100	100	–	–	–	–	–	–
CCCn1nnnc1NC(=O)c1ccc(C(F)(F)F)c(CSC)c1SC [Example 3-161]	100	100	100	90	90	80	–	–	–	–	–	–
CCCn1nnnc1NC(=O)c1ccc(C(F)(F)F)c(C[S+](C)[O-])c1SC (stereo not drawn) [Example 3-162]	–	–	–	–	–	–	100	100	100	90	100	100
CCCn1nnnc1NC(=O)c1ccc(C(F)(F)F)c(CS(C)(=O)=O)c1SC [Example 3-163]	–	–	100	90	90	90	100	100	–	–	–	–
CCCn1nnnc1NC(=O)c1ccc(C(F)F)c(CSC)c1SC [Example 3-170]	–	–	100	80	90	90	100	100	–	–	–	–
CCCn1nnnc1NC(=O)c1ccc(C(F)(F)F)c(CS(C)(=O)=O)c1Cl [Example 3-298]	–	–	80	100	90	90	100	100	–	–	–	–
CCCn1nnnc1NC(=O)c1ccc(C(F)(F)F)c(CS(=O)(=O)CC)c1Cl [Example 3-301]	100	100	80	90	90	100	–	–	–	–	–	–
CCCn1nnnc1NC(=O)c1ccc(C(F)(F)F)c(CSCC(F)(F)F)c1Cl [Example 3-311]	100	100	100	100	100	80	–	–	–	–	–	–
CCCn1nnnc1NC(=O)c1ccc(C(F)(F)F)c(CSCC2CC2)c1Cl [Example 3-314]	–	–	–	–	–	–	100	100	100	100	100	100
CCCn1nnnc1NC(=O)c1ccc(C(F)F)c(CS(C)(=O)=O)c1Cl [Example 3-322]	–	–	100	80	100	80	100	100	–	–	–	–
CCCn1nnnc1NC(=O)c1ccc(C(F)F)c(CSCC)c1Cl [Example 3-323]	–	–	100	90	100	80	100	100	–	–	–	–
CCCn1nnnc1NC(=O)c1ccc(I)c(C[S+](C)[O-])c1Cl (stereo not drawn) [Example 3-363]	100	100	90	80	100	90	–	–	–	–	–	–
CCCn1nnnc1NC(=O)c1ccc(C(F)(F)F)c(C[S+]([O-])CC)c1Br (stereo not drawn) [Example 3-384]	–	–	100	90	90	90	100	100	–	–	–	–
